Experimental data reported in publication PMC7688903 (Frontiers in Microbiology, 2020).
≈ marks a conversion by molar mass, not a printed value. Where a SMILES comes first, the peptide text is derived from it. [ ]: non-standard residue; d: D form. 2Thi = N[C@@H](Cc1cccs1)C(=O)O; Aib = CC(C)(N)C(=O)O

How the values were obtained:
[1] = tested on: E. coli ATCC 25922; assay type: cell-based, Escherichia coli; details: ATCC 25922, 20 h
Procedure, shortened: (§1)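 Inocula were set to 0.5 McFarland and diluted to ~5 × 10^5 CFU/mL (bacteria, MH broth) or 0.5 × 10^3 to 2.5 × 10^3 CFU/mL (yeast, RPMI 1640). Peptide twofold dilutions were added, plates incubated 20 h at 37°C or 48 h at 35°C, then scored by eye.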

[2] = tested on: P. aeruginosa ATCC 27853; assay type: cell-based, Pseudomonas aeruginosa; details: ATCC 27853, 20 h
Procedure, shortened: as §1

[3] = tested on: carbapenem-resistant P. aeruginosa (CRPA) SIPI-012; assay type: cell-based, Pseudomonas aeruginosa; details: carbapenem-resistant (CRPA) SIPI-012, 20 h
Procedure, shortened: as §1

[4] = tested on: A. baumannii ATCC 19606; assay type: cell-based, Acinetobacter baumannii; details: ATCC 19606, 20 h
Procedure, shortened: as §1

[5] = tested on: carbapenem-resistant A. baumannii (CRAB) SIPI-025; assay type: cell-based, Acinetobacter baumannii; details: carbapenem-resistant (CRAB) SIPI-025, 20 h
Procedure, shortened: as §1

[6] = tested on: S. aureus ATCC 25923; assay: microbe, parasite or virus in culture; assay type: cell-based, Staphylococcus aureus; details: ATCC 25923, 20 h
Procedure, shortened: as §1

[7] = tested on: proteases secreted by S. aureus ATCC 25923; assay: in vitro
Procedure, shortened: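 Cell-free culture supernatants (overnight, 37°C; MH broth for bacteria, 2% tryptone/2% dextrose for yeast) were centrifuged, adjusted to pH 8.0 and 0.22 μm filtered. Peptides at 0.5 mg/mL were incubated in supernatant 24 h at 37°C; remaining intact peptide measured by RP-HPLC, with peptide-free supernatant as negative control.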

[8] = tested on: RAW 264.7 cells; assay: Cell viability assay (MTT); assay type: cell-based, mouse; details: 1–128 μM peptide in DMEM with 4% FBS, 42 h, 595 nm, triplicate
Procedure, shortened: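 RAW 264.7 cells (1 × 10^4/well, DMEM + 10% FBS) grown overnight to 80% confluency, then exposed to peptides at 1–128 μM in DMEM with 4% FBS for 42 h at 37 °C. MTT read at 595 nm; viability relative to medium-only controls, triplicate, IC50 as 50% loss of viability.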

[9] = tested on: BALB/c mice; assay: In vivo acute toxicity, single injection; parameters: species or system mouse; details: monitored 24 h
Experimental: Six-week-old mice (approximate weight: 18–20 g, SFP grade) were bred and maintained under specific pathogen-free conditions on a 12 h light/dark cycle. The peptides were dissolved in PBS (pH 7.4) and three mice were used for each dose. As a control, colistin was administered in a similar manner. The mice were monitored for 24 h and mice were weighed at the end of the experiment. The procedure was evaluated and approved by the Ethical Committee of Experimental Animals of the Chia Tai Tianqing Pharmaceutical Group in August 2019.
As summarized in Figure 6, a toxicity score was assigned as follows: no abnormalities = without signs; mild depression, poor motility, purple-black tail, and recovery in 1 h = mild signs; serious depression and poor motility even under stimulation = manifest signs; sudden death within 10 min = died of toxic effects.

[10] = tested on: human plasma proteases; assay: in vitro

Row | SMILES | MIC [1] [µg/mL] | MIC [2] [µg/mL] | MIC [3] [µg/mL] | MIC [4] [µg/mL] | MIC [5] [µg/mL] | MIC [6] [µg/mL] | remaining at 24 h, 0.5 mg/mL ([7]; Staphylococcus aureus, S. aureus ATCC 25923 culture supernatant, pH 8) [%] | IC50 [8] [µM] | signs of toxicity after intravenous injection ([9]; single i.v. dose 5 mg/kg, three mice) | signs of toxicity after intravenous injection ([9]; single i.v. dose 10 mg/kg, three mice) | remaining at 8 h, 0.1 mg/mL [10] [%] | remaining at 24 h, 0.1 mg/mL [10] [%] | Percent of remained peptide amount after incubation (%) ([7]; S. aureus ATCC 25923 culture supernatant (MH broth), pH 8.0, 0.22 μm filtered, peptide 0.5 mg/mL, 37°C, 24 h, RP-HPLC) | signs of toxicity after intravenous injection ([9]; single i.v. dose, all tested doses (5, 10, 20 mg/kg), three mice per dose) | remaining at 12 h, 0.1 mg/mL [10] [%]
1 | CC(C)C[C@H](NC(=O)[C@H](CC(C)C)NC(=O)[C@@H](CCCCN)NC(=O)[C@@H](CCCCN)NC(=O)[C@H](Cc1ccccc1)NC(=O)[C@H](CC(C)C)NC(=O)[C@@H](CCCNC(=N)N)NC(=O)[C@H](N)CCCCN)C(=O)N[C@H](CCCCN)C(=O)N[C@@H](Cc1ccc(O)cc1)C(=O)N[C@@H](CC(C)C)C(=O)N[C@H](CCCNC(=N)N)C(=O)N[C@H](CCCCN)C(=O)N[C@@H](Cc1ccccc1)C(N)=O [DP06] (H-[dK][dR]LF[dK][dK]LL[dK]YL[dR][dK]F-NH2) | 1 (≈ 0.532 µM) | 1 (≈ 0.532 µM) | 8 (≈ 4.25 µM) | 1 (≈ 0.532 µM) | 2 (≈ 1.06 µM) | 0.5 (≈ 0.266 µM) | 86.4 ± 4.81 | 48.8 ± 6.97 | sudden death within 1 min of injection | sudden death within 1 min of injection | > 90 | > 60 | – | – | –
2 | CC(C)C[C@H](NC(=O)[C@H](Cc1ccc(O)cc1)NC(=O)[C@H](CCCCN)NC(=O)[C@H](CC(C)C)NC(=O)[C@H](CC(C)C)NC(=O)[C@H](CCCCN)NC(=O)[C@H](CCCCN)NC(=O)[C@H](Cc1ccccc1)NC(=O)[C@H](CC(C)C)NC(=O)[C@H](CCCNC(=N)N)NC(=O)C(C)(C)N)C(=O)N[C@@H](CCCNC(=N)N)C(=O)N[C@@H](CCCCN)C(=O)N[C@@H](Cc1cccs1)C(N)=O [UP09] (H-[Aib]RLFKKLLKYLRK[2Thi]-NH2; N-terminus assumed) | 2 (≈ 1.08 µM) | 2 (≈ 1.08 µM) | 4 (≈ 2.17 µM) | 2 (≈ 1.08 µM) | 2 (≈ 1.08 µM) | 1 (≈ 0.542 µM) | – | 26.2 ± 1.8 | – | – | – | > 30 | 36.92 ± 3.97 | Mild depression and purple-black tails | > 50
